In patent US5466717A, “Halogenated 4'-methoxyacetophenones as microbicides and preservatives” (Buckman Laboratories Int'l, Inc., priority 1993, dated 1995):

What was measured:
[1] = tested on: Pseudomonas aeruginosa, Enterobacter serogenes and Bacillus subtilus; test: Preservation of acrylic latex paint, 9 week multiple challenge test (Table 1); format: cell-based; design: key: 0: no growth was observed; +: less than 10 colonies were observed; ++: 10 or more colonies were observed
Experimental: The preservative effectiveness of compounds 1 and 2 was determined in a freshly prepared water-based paint formulated with titanium dioxide and calcium carbonate as pigments, an acrylic resin emulsion, dispersants, and hydroxyethyl cellulose as a thickener. The pH of this paint was approximately 9.0. […] One hundred gram samples of the test paints were challenged initially and at the end of the third and sixth weeks in a three-challenge, nine-week test with 1.0 milliliter of […] containing Pseudomonas aeruginosa, Enterobacter serogenes and Bacillus subtilus at a level of approximately 1.5×10^6 organisms per milliliter. After vigorous shaking, the inoculated paint was incubated at 28° C. Growth in system was monitored by streaking a sample of each test paint onto a nutrient agar on plates at intervals of 1 day, 2 days, 3 days, 7 days, and 21 days after each challenge. The streaked plates were incubated at 37° C. and examined for bacterial growth after 24 hours (challenge 1). A second sample of the same inoculated paint was rechallenged at the end of 21 days (challenge 2) and again at the end of 42 days (challenge 3).

[2] = tested on: Aspergillus niger; test: Inhibition of Aspergillus niger, modified pulp substrate method (Table 3); format: cell-based; design: key: 4: excellent; 3: good; 2: poor; 1: very poor, scant, questionable; 0: no growth; conditions: pH 4.5 to 5.0
Experimental: The growth inhibiting activity of compounds 1 and 2 on the fungus Aspergillus niger was evaluated. A variation of the pulp substrate method of Example 2 was used.
When fungi are used as test organisms, the pulp-substrate test method is modified to permit the growth of fungi. The pulp substrate comprises an aqueous slurry of spruce groundwood containing 1 percent by weight (dry basis) of wood fibers enriched by the addition of 0.26 percent of sodium nitrate and 0.64 percent of maltose (technical grade). Forty-gram portions of the enriched groundwood pulp slurry were added to 250 mL Erlenmeyer flasks fitted with loose metal caps and were then sterilized. Each of the following substances was then added to the flasks in the order listed:
(1) Sterile, demineralized water as required in each individual case was added to bring the total weight of the contents of each flask to 50 grams, after allowing for all subsequent additions specified hereinafter (including inoculation with the aqueous suspension of spores and/or mycelial fragments of the test fungus).
(2) One milliliter of a 2.0 percent by weight sterile solution of rosin size. Rosin size is the pasty sodium soap of rosin containing approximately 20 to 30 percent free rosin and 30 percent water. A suitable rosin size is that known as rosin size 70D made by Papermaker's Chemical Department, Hercules, Inc., Kalamazoo, Mich.
(3) A solution of the toxicant or control agent to be evaluated in each test, to give the concentration desired in parts per million by weight.
(4) A sterile solution of buffer salts to adjust the substrate to a pH of 4.5 to 5.0, prepared from 0.2M solutions of potassium acid phthalate and sodium hydroxide. The buffer mixtures were prepared according to the procedures set forth in U.S. Pat. No. 2,881,070.
(5) Inoculum consisting of 1 milliliter of an aqueous suspension of spores and/or mycelial fragments of the test organism, Aspergillus niger.
After the inoculant suspensions of the test fungi were added, the flasks were incubated at a temperature of 30°±1° C. for a period adequate for growth to occur in the controls (portions of inoculated pulp substrate which contained no toxicant). The customary periods of incubation were 7 and 14 days. Growth was recorded after each period on the basis of the following key: […]

[3] = tested on: E. aerogenes; test: Basal salts method, percentage kill of E. aerogenes (Table 5); format: cell-based, Enterobacter aerogenes; conditions: Klebsiella aerogenes
Experimental: (§1) Compounds 1 and 2 were tested against bacterial growth by the basal salts method described in U.S. Pat. No. 2,881,070, Column 5, line 12--Column 6, line 53. The disclosure of U.S. Patent No. 2,881,070 is specifically incorporated here by reference.

[4] = tested on: P. aeruginosa; test: Basal salts method, percentage kill of P. aeruginosa (Table 5); format: cell-based; conditions: Pseudomonas aeruginosa
Experimental: as §1

[5] = tested on: Desulfovibrio desulfuricans; test: Effectiveness against sulfate reducing bacterium, Method API Rp 38 (Table 7); format: cell-based; design: key: +: growth; 0: no growth; conditions: pH 7.0, duplicates
Experimental: The effectiveness of compounds 1 and 2 against Desulfovibrio desulfuricans,a sulfate reducing bacterium, was determined using the method recommended by the American Petroleum Institute (Method API Rp 38). The composition of the sulfate-reducer medium for the bacteriostatic test is as follows: The ingredients are dissolved by gentle heating with constant stirring. […] If necessary, the medium is then filtered through Whatman No. 1 or No. 2 filter paper. Following filtration, the medium is autoclaved at 15 lb steam pressure for […]. After autoclaving, the medium is allowed to cool slightly and the iron salt, Fe(SO4)2 (NH4)2.6H2 O, is added. The pH is then checked and readjusted if necessary. The medium is now cooled to room temperature as rapidly as possible, without agitation. After cooling, the medium is inoculated from the third successive 24-hour transfer of an actively growing culture (a liquid culture which turns black within 24 hours after inoculation) of sulfate-reducing bacteria. Ten milliliters of inoculum are added to each liter of medium. From stock solutions of the chemical to be screened, sufficient amounts of the compounds are added to 1- or 2-oz clear bottles so that the desired concentrations of chemicals are present when the containers are filled. The amount of stock solution added cannot exceed 10 percent of the volume of the test bottle. After addition of the chemical, the bottles are completely filled with the inoculated medium. The bottles are then capped with plastic caps containing cork and aluminum foil or Teflon liners and are incubated at 30°±2° C. All work is done in duplicate with at least three controls for each series. The controls consist of bottles filled with inoculated medium only. Growth of sulfate-reducing bacteria in the bottles is indicated by an intense blackening of the medium, whereas containers having sufficient chemical to inhibit growth will remain clear. Bottles with no sulfate-reducing bacteria growth are observed for a period of 28 days after the controls have blackened. The results were recorded using a +/0 scale where "+" indicates growth and "0" indicates no growth.

SMILES | Observation of growth 21 days after challenge ([1]; 100 ppm w/w, challenge 1) | Observation of growth 21 days after challenge ([1]; 100 ppm w/w, challenge 2) | Observation of growth 21 days after challenge ([1]; 100 ppm w/w, challenge 3) | Observation of growth 21 days after challenge ([1]; 250 ppm w/w, challenge 1) | Observation of growth 21 days after challenge ([1]; 250 ppm w/w, challenge 2) | Observation of growth 21 days after challenge ([1]; 250 ppm w/w, challenge 3) | Observation of growth 21 days after challenge ([1]; 500 ppm w/w, challenge 1) | Observation of growth 21 days after challenge ([1]; 500 ppm w/w, challenge 2) | Observation of growth 21 days after challenge ([1]; 500 ppm w/w, challenge 3) | Observation of growth 21 days after challenge ([1]; 2500 ppm w/w, challenge 1) | Observation of growth 21 days after challenge ([1]; 2500 ppm w/w, challenge 2) | Observation of growth 21 days after challenge ([1]; 2500 ppm w/w, challenge 3) | Observation of growth 21 days after challenge ([1]; 5000 ppm w/w, challenge 1) | Observation of growth 21 days after challenge ([1]; 5000 ppm w/w, challenge 2) | Observation of growth 21 days after challenge ([1]; 5000 ppm w/w, challenge 3) | Inhibition of Aspergillus niger, growth after 14 days ([2]; 5 ppm) | Inhibition of Aspergillus niger, growth after 14 days ([2]; 10 ppm) | Inhibition of Aspergillus niger, growth after 14 days ([2]; 25 ppm) | Inhibition of Aspergillus niger, growth after 14 days ([2]; 100 ppm) | killing at 2 ppm ([3]; pH 8.0) | also measured
COc1ccc(C(=O)CBr)cc1Br [Compound 1, 2,3'-dibromo-4'-methoxyacetophenone] | ++ (10 or more colonies were observed) | ++ (10 or more colonies were observed) | ++ (10 or more colonies were observed) | 0 | 0 | 0 | 0 | 0 | 0 | 0 | 0 | 0 | 0 | 0 | 0 | 4 | 2 | 0 | 0 | 99% | killing at 4 ppm ([3]; pH 8.0): 99.9%; killing at 8 ppm ([3]; pH 8.0): 100%; killing at 10 ppm ([3]; pH 6.0): 100%; killing at 10 ppm ([3]; pH 8.0): 100%; killing at 20 ppm ([3]; pH 6.0): 100%; killing at 20 ppm ([3]; pH 8.0): 100%; killing at 30 ppm ([3]; pH 6.0): 100%; killing at 30 ppm ([3]; pH 8.0): 100%; killing at 10 ppm ([4]; pH 6.0): 100%; killing at 10 ppm ([4]; pH 8.0): 98%; killing at 20 ppm ([4]; pH 6.0): 100%; killing at 20 ppm ([4]; pH 8.0): 99%; killing at 30 ppm ([4]; pH 6.0): 100%; killing at 30 ppm ([4]; pH 8.0): 99.6%; growth of Desulfovibrio desulfuricans ([5]; 1 ppm): +; growth of Desulfovibrio desulfuricans ([5]; 2 ppm): +; growth of Desulfovibrio desulfuricans ([5]; 8 ppm): +
COc1ccc(C(=O)C(Br)Br)cc1Br [Compound 2, 2,2,3'-tribromo-4'-methoxyacetophenone] | ++ (10 or more colonies were observed) | ++ (10 or more colonies were observed) | ++ (10 or more colonies were observed) | 0 | 0 | 0 | 0 | 0 | 0 | 0 | 0 | 0 | 0 | 0 | 0 | 4 | 2 | 0 | 0 | 57% | killing at 4 ppm ([3]; pH 8.0): 100%; killing at 8 ppm ([3]; pH 8.0): 100%; killing at 10 ppm ([3]; pH 6.0): 100%; killing at 10 ppm ([3]; pH 8.0): 100%; killing at 20 ppm ([3]; pH 6.0): 100%; killing at 20 ppm ([3]; pH 8.0): 100%; killing at 30 ppm ([3]; pH 6.0): 100%; killing at 30 ppm ([3]; pH 8.0): 100%; killing at 10 ppm ([4]; pH 6.0): 99.8%; killing at 10 ppm ([4]; pH 8.0): 94%; killing at 20 ppm ([4]; pH 6.0): 100%; killing at 20 ppm ([4]; pH 8.0): 100%; killing at 30 ppm ([4]; pH 8.0): 100%; growth of Desulfovibrio desulfuricans ([5]; 1 ppm): +; growth of Desulfovibrio desulfuricans ([5]; 2 ppm): +; growth of Desulfovibrio desulfuricans ([5]; 8 ppm): +
